According to ChEMBL document CHEMBL1201862, “PubChem BioAssay data set” (2004):
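Following 48 hours of exposure in 96-well plates, responses at five concentrations were used to interpolate endpoints linearly. GI50: concentration for 50% inhibition of growth.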 Calls of active or inactive are those of the source. Cut-off read from the data, not from the text of the source: active = GI50 up to about 1.1 µM and inactive = higher.

Key:
Test in all cases: NCI tumour cell line growth inhibition, 48 h
EKVX = system: EKVX
RXF 393 = system: RXF 393
SR = system: SR
SNB-78 = system: SNB-78
NCI-H522 = system: NCI-H522
HCC 2998 = system: HCC 2998
M14 = system: M14
NCI-H23 = system: NCI-H23
MOLT-4 = system: MOLT-4
TK-10 = system: TK-10
HOP-92 = system: HOP-92
K562 = system: K562
SK-MEL-28 = system: SK-MEL-28
NCI-H226 = system: NCI-H226
LOX IMVI = system: LOX IMVI
HOP-62 = system: HOP-62
RPMI-8226 = system: RPMI-8226
Hs-578T = system: Hs-578T
MDA-MB-435 = system: MDA-MB-435
DU-145 = system: DU-145

| SMILES | GI50 (EKVX) | GI50 (RXF 393) | GI50 (SR) | GI50 (SNB-78) | GI50 (NCI-H522) | GI50 (HCC 2998) | GI50 (M14) | GI50 (NCI-H23) | GI50 (MOLT-4) | GI50 (TK-10) | GI50 (HOP-92) | GI50 (K562) | GI50 (SK-MEL-28) | GI50 (NCI-H226) | GI50 (LOX IMVI) | GI50 (HOP-62) | GI50 (RPMI-8226) | GI50 (Hs-578T) | GI50 (MDA-MB-435) | GI50 (DU-145) |
| --- | --- | --- | --- | --- | --- | --- | --- | --- | --- | --- | --- | --- | --- | --- | --- | --- | --- | --- | --- | --- |
| C#C[C@H]1CCCCCC1O (some centres not stated) | > 100 µM (inactive) | > 100 µM (inactive) | 97.7 µM (inactive) | > 100 µM (inactive) | > 100 µM (inactive) | > 100 µM (inactive) | > 100 µM (inactive) | > 100 µM (inactive) | > 100 µM (inactive) | > 100 µM (inactive) | > 100 µM (inactive) | > 100 µM (inactive) | > 100 µM (inactive) | > 100 µM (inactive) | 29 µM (inactive) | > 100 µM (inactive) |  |  |  |  |
| O=C1c2ccccc2C(=O)N1CCn1nc(-c2ccccc2)cc(-c2ccccc2)c1=O | 51.5 µM (inactive) | > 100 µM (inactive) | 5.4 µM (inactive) | > 100 µM (inactive) | 18.6 µM (inactive) | 67.8 µM (inactive) | > 100 µM (inactive) | 43.2 µM (inactive) | 26.4 µM (inactive) |  | 37.8 µM (inactive) | 18.2 µM (inactive) | > 100 µM (inactive) | 50.1 µM (inactive) |  | > 100 µM (inactive) | 5.41 µM (inactive) |  |  |  |
| c1ccc(N2N=C(c3ccco3)CC2c2ccco2)cc1 (configuration not stated) | 98.9 µM (inactive) | 52.4 µM (inactive) | 30.3 µM (inactive) | > 100 µM (inactive) | 46.9 µM (inactive) |  | > 100 µM (inactive) | 66.5 µM (inactive) | 20.5 µM (inactive) | > 100 µM (inactive) |  | 34.3 µM (inactive) | > 100 µM (inactive) | 66.8 µM (inactive) | > 100 µM (inactive) | > 100 µM (inactive) | 35.2 µM (inactive) |  |  |  |
| C/C(=C\c1ccccc1)C(O)C(=O)c1nc2ccc(Cl)cc2nc1O (configuration not stated) | 91.2 µM (inactive) |  | 25.1 µM (inactive) | > 100 µM (inactive) | 52 µM (inactive) | > 100 µM (inactive) | > 100 µM (inactive) | > 100 µM (inactive) | 48.3 µM (inactive) | > 100 µM (inactive) |  | 55.5 µM (inactive) | > 100 µM (inactive) | > 100 µM (inactive) | > 100 µM (inactive) | > 100 µM (inactive) | 12.5 µM (inactive) |  |  |  |
| COc1cccc(-c2nccc3c(OCc4ccccc4)c(OC)c(OC)cc23)c1 | > 100 µM (inactive) | 4.51 µM (inactive) | 6.68 µM (inactive) | 63.1 µM (inactive) | > 100 µM (inactive) | 58.3 µM (inactive) | > 100 µM (inactive) | 4.09 µM (inactive) | 5.53 µM (inactive) | > 100 µM (inactive) | > 100 µM (inactive) | 4.91 µM (inactive) |  | > 100 µM (inactive) | > 100 µM (inactive) | > 100 µM (inactive) | 7.08 µM (inactive) |  |  |  |
| C[N+](C)(C)CC1CCc2ccccc2C1=O (configuration not stated) | 7.76 µM (inactive) | 14.2 µM (inactive) | 1.79 µM (inactive) | 23.4 µM (inactive) | 0.0809 µM (active) | 15.3 µM (inactive) | 5.87 µM (inactive) | 13.3 µM (inactive) | 2.32 µM (inactive) | 16.1 µM (inactive) | 7.35 µM (inactive) | 1.79 µM (inactive) | 8.89 µM (inactive) | 24.2 µM (inactive) | 18.7 µM (inactive) | 26.4 µM (inactive) | 1.43 µM (inactive) | 13.7 µM (inactive) | 5.62 µM (inactive) | 18.6 µM (inactive) |
| O=C1NN=C(c2ccc([N+](=O)[O-])cc2)C1n1nc(-c2ccccc2)c2ccccc2c1=O (configuration not stated) | > 100 µM (inactive) | > 100 µM (inactive) | > 68.2 µM (inactive) | > 100 µM (inactive) | > 100 µM (inactive) | > 100 µM (inactive) | > 100 µM (inactive) | > 100 µM (inactive) | > 94.2 µM (inactive) | > 100 µM (inactive) | > 100 µM (inactive) | > 54.5 µM (inactive) | > 100 µM (inactive) | > 100 µM (inactive) | > 76.9 µM (inactive) | > 100 µM (inactive) | > 48.6 µM (inactive) |  |  |  |
| CC(=O)NNc1nc(C)c(C(=O)NNC(=O)C(=O)Nc2ccc(Cl)cc2)s1 | > 100 µM (inactive) |  | 68.5 µM (inactive) | > 100 µM (inactive) | 31.8 µM (inactive) | > 100 µM (inactive) | > 100 µM (inactive) | > 100 µM (inactive) | 37.4 µM (inactive) | > 100 µM (inactive) | 39.5 µM (inactive) | 46.2 µM (inactive) | > 100 µM (inactive) | > 100 µM (inactive) | 53 µM (inactive) | > 100 µM (inactive) | > 100 µM (inactive) |  |  |  |
| COc1cc2ccc3c4c(OC)cc(OC)c(OC)c4c([O-])[n+](C)c3c2cc1OC | 22.2 µM (inactive) |  | 0.759 µM (active) | 10.2 µM (inactive) | 2.55 µM (inactive) | 14.4 µM (inactive) |  | 10.1 µM (inactive) | 1.67 µM (inactive) | > 40.3 µM (inactive) | 12 µM (inactive) | 0.568 µM (active) | 30.3 µM (inactive) |  |  | 15.1 µM (inactive) | 0.368 µM (active) |  |  |  |
| NC(=O)c1csc(CCCCCCc2nc(C(N)=O)cs2)n1 | > 100 µM (inactive) | > 100 µM (inactive) | > 100 µM (inactive) | > 100 µM (inactive) | > 100 µM (inactive) | > 100 µM (inactive) | > 100 µM (inactive) | > 100 µM (inactive) | > 100 µM (inactive) | > 100 µM (inactive) | > 100 µM (inactive) | > 39.1 µM (inactive) | > 100 µM (inactive) | > 100 µM (inactive) | > 61.7 µM (inactive) | > 100 µM (inactive) | > 50.9 µM (inactive) |  |  |  |
| CCCCCCCCCCCCCCCCCCOP(=O)([O-])OC1CC[N+](C)(C)CC1 [PERIFOSINE] | 11.3 µM (inactive) | 1.79 µM (inactive) | 1.11 µM (active) | 23.4 µM (inactive) | 2.97 µM (inactive) | 5.16 µM (inactive) | 2.97 µM (inactive) | 16.1 µM (inactive) | 3.4 µM (inactive) | 2.04 µM (inactive) | 3.38 µM (inactive) | 16.4 µM (inactive) | 17.9 µM (inactive) | 11.2 µM (inactive) | 7.43 µM (inactive) | 7.53 µM (inactive) | 3.83 µM (inactive) | 13 µM (inactive) | 14.7 µM (inactive) | 16.9 µM (inactive) |
| COc1ccc(C)cc1C1CCC(=O)O1 (configuration not stated) | > 100 µM (inactive) | > 100 µM (inactive) | > 100 µM (inactive) | > 100 µM (inactive) | > 100 µM (inactive) | > 100 µM (inactive) | > 100 µM (inactive) | > 100 µM (inactive) | > 100 µM (inactive) | > 100 µM (inactive) |  | > 100 µM (inactive) | > 100 µM (inactive) | > 100 µM (inactive) | > 100 µM (inactive) | > 100 µM (inactive) | > 100 µM (inactive) |  |  |  |
| COc1ccc(C2=CC3CCC2C3)cc1 (configuration not stated) | > 100 µM (inactive) | > 100 µM (inactive) | > 100 µM (inactive) | > 100 µM (inactive) | > 100 µM (inactive) |  | > 100 µM (inactive) | > 100 µM (inactive) | > 100 µM (inactive) | > 100 µM (inactive) | 59.8 µM (inactive) | > 100 µM (inactive) | > 100 µM (inactive) |  | > 100 µM (inactive) | > 100 µM (inactive) | > 100 µM (inactive) |  |  |  |
| COc1cc([C@@H]2c3cc4c(cc3[C@@H](NC(=O)c3cccc(N)c3)C3COC(=O)[C@@H]32)OCO4)cc(OC)c1O (some centres not stated) | 2.61 µM (inactive) | 3.42 µM (inactive) | < 0.01 µM (active) | 3.92 µM (inactive) |  | 2.21 µM (inactive) | 1.26 µM (inactive) | 0.261 µM (active) | < 0.0147 µM (active) | 3.31 µM (inactive) | 0.946 µM (active) | 2.11 µM (inactive) | 8.63 µM (inactive) | 0.236 µM (active) | 0.491 µM (active) | 0.0231 µM (active) | 0.507 µM (active) |  |  |  |
